The record followed here is PubChem BioAssay AID849 (SRMLSC, 2007).

As usually defined, the IC50 is the concentration that gives 50% inhibition.

The source made the active and inactive calls. No rule for the calls is given here.

This test has as its system Saccharomyces cerevisiae lifespan shortening, growth inhibition. The test is described as follows: Saccharomyces cerevisiae growth inhibition potency – dose response (AID 849).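 Also: yeast growth read as optical density after two days at 30 degrees C.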
For the molecule `c1ccc(-c2nc3nonc3nc2-c2ccccc2)cc1`, the IC50 is > 100 µM (inactive). As for `O=C1C(=C2CCCCC2)SC(=S)N1Cc1ccco1`, the figure is > 100 µM (inactive).

Consider `O=C(/C=C/c1ccccc1Cl)c1ccccc(=O)c1O`, for which the IC50 was 9.76 µM. On to `O=S(=O)(Nc1ccc(-c2csc(-c3ccccc3)n2)cc1)c1ccc(F)cc1`, for which the IC50 was > 100 µM (inactive). `COc1ccc(NCc2ccc([N+](=O)[O-])s2)c(OC)c1`: the IC50 is 41.1 µM.

Turning to `Cc1ccc(-c2cc(-c3ccccc3C)[nH]n2)c(O)c1`, the 50% inhibitory concentration (IC50) was 15.8 µM. Take `Clc1ccc2nnnc(-c3ccccc3)c2c1`: the IC50 was 38.8 µM. For `O=S(=O)(Nc1ccc(-n2cccc2)cc1)c1ccc(Cl)cc1Cl`, the IC50 is > 100 µM (inactive). As for `O=C(c1ccc(C(=O)N2CCCc3ccccc32)s1)N1CCCc2ccccc21`, the half-maximal inhibitory concentration (IC50) is 35.6 µM. Consider `CCCCCCCCCCCCCCCC[n+]1ccc(/C=N/O)cc1`, for which the IC50 is 1.54 µM.

Regarding `O=C(O)Cc1ccc2sc(-c3ccccc3)nc2c1`, the IC50 was > 100 µM (inactive).

For the molecule `CCCCCC1CCC(C(=O)O)CC1` (stereo unspecified), the IC50 was > 100 µM (inactive). Consider `COc1cc(OC)nc(NC(=O)CS(=O)(=O)c2ccccc2)n1`, for which the half-maximal inhibitory concentration (IC50) is 33.4 µM. For `CCCCN=C(NNc1ccc(Br)cc1)C(=O)OCC`, the concentration for half-maximal inhibition (IC50) is 5.3 µM. Regarding `O=C(Nc1cccc(N=Cc2cc(Br)cc(Br)c2O)c1)c1ccco1`, the 50% inhibitory concentration (IC50) is 19.3 µM. Turning to `O=c1cccc2n1Cc1cc3ccccc3nc1-2`, the half-inhibitory concentration (IC50) is 29.8 µM. As for `Cc1ccc2[nH]c3c(c2c1)CCc1cn[nH]c1-3`, the figure is 15.6 µM; as for `CCN(CC)c1ccc(S(=O)(=O)N2CCOCC2)cc1NC(=O)CSc1cccc[n+]1[O-]`, 16.7 µM; as for `CNC(=O)c1cc2c(ccc3ccccc32)oc1=N`, 12.4 µM.

As for `Cc1nn(-c2ccccc2)c2sc(-c3n[nH]c(=S)o3)cc12`, the IC50 was > 100 µM (inactive). As to `Nc1ccc(C(=O)OCC(=O)Nc2ccc3c(c2)OCO3)cc1[N+](=O)[O-]`, the IC50 is > 100 µM (inactive). As for `Cc1cc([N+](=O)[O-])ccc1-c1ccc(C2Nc3ccccc3C(=O)N2O)o1` (stereo unspecified), the figure is > 100 µM (inactive).

Take `Cc1cc2c(cc(C(=O)O)n2C)s1`: the half-maximal inhibitory concentration (IC50) is 36.5 µM. On to `Cc1cc(O)c(/C=N/Nc2ccc(Cl)cc2)c(=O)o1`, for which the 50% inhibitory concentration (IC50) is 5.9 µM. As for `C=CCN1C(=O)/C(=C/c2cccs2)C(=O)NC1=S`, the figure is 17.6 µM; as for `Cc1ccc(-c2cc(-c3ccccc3Cl)[nH]n2)c(O)c1`, 51.1 µM; as for `C=CCSC(=C(C#N)C#N)c1cc2c([nH]1)CCCC2`, > 100 µM (inactive). As for `CCCc1cc(C(=O)NC2CCCCC2)no1`, the figure is > 100 µM (inactive); as for `O=C1C(=O)c2c(C(=O)c3ccccc3)coc2-c2ccccc21`, 13.4 µM. As for `O=C(Oc1c(Cl)cc(Cl)c2cccnc12)c1cccs1`, the concentration for half-maximal inhibition (IC50) is 11.1 µM. For `O=C1NCCCC1C(=O)N/N=C/c1cccc(O)c1` (stereo unspecified), the IC50 was > 100 µM (inactive). Turning to `COc1ccc(C(=O)/C=C/N2CCCCC2)cc1OC`, the 50% inhibitory concentration (IC50) is 21.4 µM. Consider `COc1ccccc1OCCN1CSC(=S)N(C)C1`, for which the IC50 is 11.8 µM. As to `Cc1cc(=O)[nH]c(SCc2nc3ccccc3s2)n1`, the IC50 is > 100 µM (inactive). On to `Cc1nc2ccccc2c2nc3ccccc3n12`, for which the IC50 was 5.3 µM. For the molecule `CC(C)(CNC(=S)NCCc1ccccc1)CNC(=S)NCCc1ccccc1`, the IC50 was > 100 µM (inactive).

As to `CCOc1ccc(/C=C/C(=O)c2cc(Br)ccc(=O)c2O)cc1`, the IC50 is 11.5 µM. Regarding `Cc1ccc(NC(=O)CSC2=C(C#N)C(c3ccc4c(c3)OCO4)C3=C(CCCC3=O)N2)c(C)c1` (stereo unspecified), the IC50 was > 100 µM (inactive). On to `NC(=O)c1sc2nc(-c3ccco3)ccc2c1N`, for which the IC50 is > 100 µM (inactive). For `O=C1c2ccccc2NC(c2ccc(-c3cccc(Cl)c3)o2)N1O` (stereo unspecified), the IC50 is 35 µM. On to `O=C1Cc2ccccc2C(=O)N1CCc1ccccc1`, for which the IC50 was > 100 µM (inactive). For the molecule `CCCCc1ccc(NC(=S)Nc2ccc(Nc3ccc(OC)cc3)cc2)cc1`, the IC50 was 33.1 µM.

For `CCN1/C(=C(\O)c2ccccc2)C(=O)c2ccccc2S1(=O)=O`, the IC50 is > 100 µM (inactive).

With `COc1cc2c(cc1OC)CN(C(=O)CSc1nnc3scc(-c4ccccc4)n13)CC2`, the IC50 is > 100 µM (inactive). With `COC1=C(c2ccccc2)C(=O)c2ccccc2C1=O`, the half-inhibitory concentration (IC50) is 16.2 µM. With `CN1CCN(Cc2cc(COCc3ccccc3)c3cccnc3c2O)CC1`, the IC50 was 26 µM. As to `c1ccc2c(c1)nnn1c3ccccc3nc21`, the IC50 is > 100 µM (inactive). Consider `CCCCc1oc2ccccc2c1C(=O)c1cc(I)c(OCCN(CC)CC)c(I)c1`, for which the 50% inhibitory concentration (IC50) was 7.79 µM. With `CC(Nc1ccc(Br)cn1)c1cc(Cl)ccc1O` (stereo unspecified), the IC50 is > 100 µM (inactive).

As for `COc1ccc(CNC(=O)CSc2nnc(-c3ccc(NC(C)=O)cc3)n2C)cc1`, the IC50 was > 100 µM (inactive). Turning to `Oc1ccccc1NCC(O)Cn1ccc2ccccc21` (stereo unspecified), the IC50 was > 100 µM (inactive). Take `Cc1cccc(NC(=O)CC2SC(=O)N(c3ccccc3)C2=O)c1` (stereo unspecified): the IC50 was > 100 µM (inactive). On to `Cc1ccc(NC(=S)Nc2ccc(Cl)c(Cl)c2)c(OC(F)F)c1`, for which the IC50 was 22.2 µM.

Regarding `COc1ccc(OC)c(-c2c3cc(O)c(=O)cc-3oc3cc(O)c(O)cc23)c1`, the IC50 was 30.1 µM. Take `Oc1ccc(N=Nc2cccc(Cl)c2)cc1C=Nc1ccc(N2CCOCC2)cc1`: the IC50 was > 100 µM (inactive). For `COc1ccc(NC(=O)C2CCCN2S(=O)(=O)c2cccc3cccnc23)c(OC)c1` (stereo unspecified), the IC50 was 40.5 µM. For `O=C1NC(=S)N(c2ccccc2F)C(=O)/C1=C\c1cccs1`, the half-maximal inhibitory concentration (IC50) was 18.6 µM. Turning to `Cn1c2ccccc2c2cc(C(=O)O)ccc21`, the IC50 was 25.4 µM. As to `O=C(N/N=C/c1sc2ccccc2c1O)c1cccc2ccccc12`, the 50% inhibitory concentration (IC50) is 21 µM.

Take `Oc1c(Br)cc(Br)cc1/C=N/c1nc2c(s1)CCCC2`: the IC50 is 17.5 µM. In the case of `COC(=O)c1ccc(CSc2ccc3nnc(-c4cccc(F)c4)n3n2)o1`, the IC50 is > 100 µM (inactive). Consider `COc1ccc(Br)cc1C1CC(=O)N2CN(C)CSC2=C1C#N` (stereo unspecified), for which the IC50 is > 100 µM (inactive). As for `CCN1CCN(C(=O)C(NS(=O)(=O)c2ccc3nc(C)sc3c2)C(C)C)CC1` (stereo unspecified), the IC50 was > 100 µM (inactive). As for `CCCn1c(C)cc(C(=O)COC(=O)c2ccc[nH]c2=O)c1C`, the figure is 35.6 µM; as for `NNC(=O)c1cccc(COc2ccc(Br)cc2)c1`, 41.9 µM. As for `OCc1ccnc2c(O)cccc12`, the figure is > 100 µM (inactive); as for `O=C1ON=C(c2ccccc2)/C1=C/c1ccc(OS(=O)(=O)c2ccccc2)cc1`, 18.9 µM; as for `CCCC(=O)NC(c1cccs1)c1cc([N+](=O)[O-])c2cccnc2c1O` (stereo unspecified), 16.6 µM. Take `COCCN1CSC(=S)N(Cc2ccco2)C1`: the half-inhibitory concentration (IC50) is 20.1 µM. `Fc1ccc(-c2ccc(-c3nn4c(-c5ccco5)nnc4s3)o2)cc1`: the IC50 is > 100 µM (inactive). As for `CC1(C)C[C@H]2C=C(C=O)[C@]3(C=O)C[C@]3(C)[C@H]2C1`, the figure is 5.25 µM; as for `CCOC(=O)c1cnc(-n2nc(C)cc2C)nc1NNc1cc(C)nc(-c2ccccc2)n1`, > 100 µM (inactive); as for `CN1CCc2cc3c(c4c2[C@H]1[C@H](O)c1ccccc1-4)OCO3`, 35.4 µM. As for `N#C/C(=C\c1ccc([N+](=O)[O-])o1)c1nc2ccccc2[nH]1`, the IC50 is > 100 µM (inactive). Regarding `COc1ccc2cc(C(=O)O)ccc2c1`, the half-inhibitory concentration (IC50) was 13.9 µM. Consider `O=C1CCN2C=Nc3cccc4ccc1c2c34`, for which the IC50 was 32.9 µM. For the molecule `Cn1c(=O)c(C(=O)Nc2ncccn2)c(O)c2ccccc21`, the IC50 is 33 µM.

With `O=C(Nc1ccc(Cl)cc1)ON=C1CCCC1`, the concentration for half-maximal inhibition (IC50) is 3.69 µM. Regarding `COc1ccc(-c2nnc3c4ccccc4c(C)nn23)cc1`, the IC50 is > 100 µM (inactive). On to `O=C(O)CCn1cc(/C=C/C(=O)c2ccc(Cl)cc2)c(-c2ccc(Br)cc2)n1`, for which the IC50 is > 100 µM (inactive). For `CC(=O)NC(c1cccs1)c1cc([N+](=O)[O-])c2cccnc2c1O` (stereo unspecified), the IC50 is > 100 µM (inactive). For the molecule `O=C(CSCc1ccco1)Nc1cc(C(F)(F)F)ccc1N1CCOCC1`, the IC50 is > 100 µM (inactive). As to `COc1ccc(OCCNC2CCCC2)cc1`, the IC50 is > 100 µM (inactive). Turning to `CCCC1COC(Cn2cncn2)(c2ccc(C)cc2)O1` (stereo unspecified), the IC50 is 3.94 µM. As for `COc1ccc(/C=C/C(=O)c2cc(Br)ccc(=O)c2O)cc1`, the IC50 was 12.6 µM. Consider `C=CCC1c2cccc(C(=O)O)c2C(=O)N1c1cccc(C)c1` (stereo unspecified), for which the concentration for half-maximal inhibition (IC50) was 2.79 µM. Regarding `O=[N+]([O-])c1ccc(N/N=C/c2ccc[nH]2)cc1`, the IC50 was > 100 µM (inactive). For `CC1(C)Cc2c(C#N)c(N)sc(=S)c2CO1`, the IC50 is > 100 µM (inactive). `Oc1c(Cl)cc(Cl)c(Cl)c1Cc1c(O)c(Cl)cc(Cl)c1Cl`: the IC50 is > 100 µM (inactive).

As to `CCOC(=O)c1c(NC(=S)Nc2ccc(Cl)cc2)sc2c1CCN(C)C2`, the IC50 is 7.82 µM. As for `Cc1cccc(CSc2cccc3cccnc23)c1`, the figure is 33.1 µM; as for `Cc1ccc2c(c1)C(=NC1CCCCC1)c1cc3ccccc3nc1-2`, 41.3 µM; as for `CCC(=C(c1ccc(OC)cc1)c1ccc(OC)cc1)c1cn(CC(O)CN2CCN(C)CC2)c2ccccc12` (stereo unspecified), 36.9 µM. As for `CCOC(=O)CNC(=O)CSc1nnc(-c2ccco2)n1Cc1ccco1`, the IC50 was > 100 µM (inactive).

In the case of `Nc1c(Cl)ncnc1N/N=C/c1ccccn1`, the half-maximal inhibitory concentration (IC50) is 11.2 µM. Take `O=c1[nH]c2ccccc2c2nc3ccccn3c12`: the IC50 is 40 µM. `CCCn1c(Nc2nc3ccccc3n2C)nc2ccccc21`: the IC50 was 43.3 µM. For `CCOC(=O)c1c(N)sc(C(O)(C(F)(F)F)C(F)(F)F)c1-c1ccc(F)cc1`, the IC50 was > 100 µM (inactive). Consider `CC1CCCC2(C1)NC(=S)c1c(sc3c1CCCC3)N2` (stereo unspecified), for which the IC50 is > 100 µM (inactive). Turning to `Cc1ccc(-c2nnc3ccc(SC(C)C(=O)O)nn23)cc1` (stereo unspecified), the IC50 is > 100 µM (inactive).

As to `Cc1nc2ccccc2c2c1C(=O)N(C)C2=O`, the IC50 is 10.9 µM.
